The record followed here is US9981983B2, “Thienopyranones as kinase inhibitors” (SignalRx Pharmaceuticals, Inc., priority 2008, dated 2018).

Holding throughout (format): cell-based
For one assay, the system named is SKMEL2 (Melanoma). Description: Cell proliferation MTS assay, SKMEL2. The conditions noted are these: Homo sapiens, SK-MEL-2, 72 hours. As to the method: (§1) All cell lines were obtained from ATCC and cultured and plated according to ATCC recommendations. Cells were cultured in complete culture media containing 10% heat-inactivated fetal bovine serum (FBS, Mediatech, Inc.). For adherent cell lines, once cells reached 70% confluency, they were trypsinized and resuspended in phenol red free RPMI media (Mediatech, Inc.) plus 10% heat-inactivated FBS (assay buffer) and 100 μL aliquots were plated into each well of 96-well microtiter plates at a final density of 1,000-2,000 cells/well. Cells were incubated overnight at 37° C. in 5% CO2, and treated with test compounds on the next day. For suspension cell lines, cells were resuspended in assay buffer, plated into 96-well microtiter plates at a density of 10^4-10^5 cells/well/100 μL, and treatment was started on the same day. Cells were treated with vehicle (DMSO) and test compounds for 72 hours at concentration of 100, 70, 40, 20, 10, 5, 2.5, 1.25, 0.5 and 0.2 μM in four replicates at 37° C. in 5% CO2.
On the technique in general: Tetrazolium assays rely on reduction of a dye to a coloured formazan, in cell work by metabolically active cells.

In a further assay the test system is MCF7 breast cancer cells. Description: Mammosphere cancer stem cell inhibition assay. The settings on record: first experiment; for number of mammospheres: control 38±4. As to the method:
A mammosphere cancer stem cell inhibition assay was set up using literature methods (T. M. Phillips et al. J. Natl. Cancer I. 2006, 98, 1777-1785, “Mammalian target of rapamycin contributes to the acquired apoptotic resistance of human mesothelioma multicellular spheroids”) using a subset of MCF7 breast cancer cells that posses the ability to evade anchorage independent apoptosis. Commercially available MCF7 breast cancer cells were cultured in MEM supplemented with 0.01 mg/mL of bovine insulin and 10% FBS at 37° C. in humidified atmosphere (5% CO2). Floating cells in the 2-day cultures were collected, washed, and resuspended in DMEM-F12 (50:50) supplemented with 0.4% BSA, 5 μg/mL bovine insulin, 20 ng/mL bFGF, and 10 ng/mL EGF. Cells were then passed through a […] sieve to remove any cell clusters and adjusted to a density of 10,000 cells/mL. Approximately 500 cells were plated in quadruplicate in a sterile poly-HEMA-treated 96-well plate. Cells were then treated with either control or test solutions consisting of the kinase inhibitor Lapatinib (1 μM), Cpd 28 (1 or 10 μM), Cpd 55 (1 or 10 μM), The numbers of mammospheres (clusters of cells numbering more than 4 or 5 per cluster) were then counted after 5-7 days.

The subject of another assay is PC3 cells. Description: PC3 prostate cancer cell proliferation (WST). The conditions noted are these: Homo sapiens, PC-3; 72 hours; read-out: IC50 PC3 Proliferation.
A further assay has as its system BXPC3 (Pancreas). Description: Cell proliferation MTS assay, BXPC3. The settings on record: Homo sapiens, BXPC-3, 72 hours. As to the method: as §1
Assay [1] relates to pAKT serine 473 level in PC3 cells. Description: pAKT status in IGF-1 stimulated PC3 cells (Ser473 pAKT ELISA). The conditions noted are these: Homo sapiens, PC-3; IGF-1 stimulated PC3 cells; read-out: PC3 pAKT IC50. As to the method: PC3 cells were obtained from the American Type Culture Collection (ATCC, Manassas, Va., Cat.# CRL-1435). Two million cells from the prostate cancer line PC3 were placed into 6 cm culture dishes and allowed to grow in complete RPMI 1640 media (Invitrogen, Carlsbad, Calif., Cat.#22400-105) with 10% fetal bovine serum (Invitrogen, Carlsbad, Calif., Cat.#10438-026). After this time period the cells were serum starved for 5 hours followed by application of the test compound. Test compound was added as a DMSO (dimethyl sulfoxide) solution such that the final DMSO concentration in the cell media was less than or equal to 0.2% by volume After 30 minutes of exposure the growth factor stimulant, human IGF-1 (PeproTech, Inc., Rocky Hill, N.J., Cat.#100-11), was added to a final concentration of 0.1 μg/ml in each well. After 30 minutes of IGF-1 exposure, cells were removed from the media and cell lysates were prepared using RIPA Lysis buffer (Upstate, Lake Placid, N.Y., Cat.#20-188), keeping on ice. The pAKT serine 473 level was measured in duplicate samples of the cell lysates using commercially available assays such as the Pathscan® Sandwich ELISA kit for Ser473 pAKT (Cell Signaling, Danvers, Mass., Cat.#7160). A SpectraMax Plus spectrophotometric plate reader (Molecular Devices, Sunnydale, Calif.) was used to measure the optical density signal for pAKT at 450 nm (OD450 nm). The pAKT OD450 nm readings were normalized by total protein amount in the cell lysates determined by standard methods.
Concentrations of test compounds required to inhibit IGF stimulated pAKT levels to 50% of maximum levels in PC3 cells (termed DM50 for decreased maximum 50%) were calculated by inputting the dose responses in the software package GraphPad Prism4 (GraphPad Software, Inc., San Diego, Calif.).
By these methods a number of compounds of the invention were evaluated and the concentration needed to reduce the detectable pAKT to 50% of the maximal uninhibited signal was calculated. These values (in μMolar units) are listed in Table 8 under the column heading PC3 pAKT IC50 (μMolar).
Background: ELISA stands for enzyme-linked immunosorbent assay.

The next assay relates to OVCAR3 (Ovary). As to the kind of experiment: Cell proliferation MTS assay, OVCAR3. The settings on record: Homo sapiens, OVCAR-3, 72 hours. On the procedure:
as §1

The next assay concerns PC3 (Prostate). Description: Cell proliferation MTS assay, PC3. The conditions noted are these: 72 hours. As to the method: as §1

For `O=c1cc(N2CCOCC2)oc2c(-c3ccc4c(c3)OCCO4)csc12` [Compound 28, 3-(2,3-dihydrobenzo[b][1,4]dioxin-6-yl)-5-morpholino-7H-thieno[3,2-b]pyran-7-one], the IC50 in the assay on SKMEL2 (Melanoma) was 5.2 µM; in the assay on PC3 cells it was 1300 to 1910 nM; with BXPC3 (Pancreas), 3.35 µM; in assay [1], 161 to 440 nM; in the assay on OVCAR3 (Ovary), 1240 nM; with PC3 (Prostate) it was 1220 nM. The “inhibition of mammosphere production versus control” value is “approximately 60%” in the assay with MCF7 breast cancer cells (1 μM) and “approximately 88%” with MCF7 breast cancer cells (10 μM). Also, the number of mammospheres came out at 15±2 mammospheres with MCF7 breast cancer cells (1 μM) and 5±1 mammospheres in the assay on MCF7 breast cancer cells (10 μM).
